Data published in patent publication US20260306526A1, “COMBINATION THERAPY FOR BACTERIAL INFECTIONS COMPRISING ZINC-CHELATOR, BETA-LACTAM ANTIBIOTIC AND SERINE BETA-LACTAMASE INHIBITOR” (priority 2023, published 2026).

Legend:
[1] = tested on: certain strains of Pseudomonas aeruginosa; settings: with MEM; cited from earlier work
[2] = tested on: Klebsiella pneumoniae K66-45; assay: MIC determination, fixed concentration of sBLI (Examples 8-9); format: cell-based; settings: Example 9; with PIP and TAZ 16 μg/mL; NDM-1; caMHB, 29.4 μM Zn2+
Method: Antimicrobial susceptibility testing (AST) by broth microdilution (MIC determination) was performed according to The European Committee on Antimicrobial Susceptibility Testing (EUCAST) guidelines (see Reading guide for broth microdilution Version 5.0, 2024: https://www.eucast.org).
For combinations containing meropenem as the antibiotic, Sensititre™ FINMER meropenem 64-0.03 μg/mL plates (Thermo Fischer Diagnostics custom plates; YFINMER) were used in most of the experiments. For other antibiotics (and for meropenem whenever a higher start concentration than 64 μg/mL was needed) sterile clear round bottom polystyrene (non-treated) 96-well microplates (Corning 3788) were used for making serial two-fold dilutions of the antibiotic in cation-adjusted Mueller Hinton II broth (caMHB; Thermo Scientific, T3462, containing 29.4 μM Zn^2+ or MILLIPORE, 90922-500G, containing 5.6 μM Zn^2+), across the columns of the microtiter plate (128-0.06 μg/mL; columns 1-12).
The checkerboard plates were all modified by adding a serine β-lactamase inhibitor (sBLI) at a fixed concentration of 16 μg/mL. Additionally, the zinc chelator was added at various fixed concentrations. […]

[3] = tested on: K. pneumoniae K66-45 (NDM-1); assay: MIC determination of meropenem with zinc chelator at varying zinc concentrations in the medium (Example 31); format: cell-based, Klebsiella pneumoniae
Method: An experiment was conducted to determine the Minimal Inhibitory Concentration (MIC) of meropenem (MEM) in combination with the zinc chelator according to Example 26 of WO 2018/033719 at varying concentrations of zinc in the medium. The medium was a Mueller Hinton broth from Thermo Fischer. The zinc content was measured as 5.6 μM using ICP-MS. The concentration of zinc in the plasma of healthy animals has been determined to be close to this value. In infectious tissue, the zinc concentration is below the limit of detection (see, for example Bilinskaya et al., Am. Soc. For Microbiology (2020), 58, pages 1-8). Zinc sulfate was then added to this broth to obtain three further concentrations: 15.6 μM, 25.6 μM and 35.6 μM of zinc, keeping all other parameters constant.
As a model bacterial strain for this experiment, the MIC of MEM vs. K. pneumoniae K66-45 (NDM-1) was then determined in broth containing the four concentrations of zinc following the protocol given in Example 1. The EUCAST MIC value for MEM alone (EUCAST: standardization organization for MIC values of antibiotics) is 4-8 μM, meaning that if a bacterial strain is inhibited at lower concentrations than the MIC value, the bacterial strain is sensitive(S) to MEM. Correspondingly, if the bacterial strain is not inhibited at MIC or lower, the strain is resistant (R). If the inhibition is within the MIC range 4-8 μM, the resistance is intermediate (I).

For CN(C[C@H](O)[C@@H](O)[C@H](O)[C@H](O)CO)C(=O)c1ccc(CN(Cc2ccccn2)Cc2ccccn2)nc1 [zinc chelator], the effect of combination [1] is given as “poor effect”, the “Synergy with the zinc chelator observed at concentration” value [2] is given as 16 µg/mL and the “sensitivity of the strain” value ([3]; printed: "at 4-8 μM when used tested at a concentration 4 μM", with MEM) is given as “sensitive”. For the same compound, the “effect against the bacterial strain” value ([3]; zinc chelator 16 μM with MEM, highest concentration of zinc (35.6 μM)) was “ineffective”.
